tested on: NO production in BV-2 cells [NO 생성; BV-2 세포]; assay: Nitric oxide (NO) quantification (nitrite, Griess reaction) in LPS-activated BV-2 cells; format: cell-based; settings: Mus musculus, BV-2, 24 h, 20 μM, LPS 0.2 ㎍/mL, 24 h co-treatment, nitrite by Griess at 540 nm

Compound | activity at 20 µM [%]
CSc1nc(NCc2ccccc2)c2c(-c3ccccc3)nn(Cc3ccccc3)c2n1 [32a, 1-벤질-3-페닐-4-벤질아미노-6-(메틸티오)피라졸로[3,4-d]피리미딘] | 53 ± 3
CSc1nc(NCc2ccc(F)cc2)c2c(-c3ccccc3)nn(Cc3ccccc3)c2n1 [32c, 1-벤질-3-페닐-4-(4-플루오로벤질)아미노-6-(메틸티오)피라졸로[3,4-d]피리미딘] | 69 ± 8
C=CCNc1nc(SC)nc2c1c(-c1ccccc1)nn2Cc1ccccc1 [32d, 1-벤질-3-페닐-4-알릴아미노-6-(메틸티오)피라졸로[3,4-d]피리미딘] | 46 ± 2
CSc1nc(Cl)c(C(=O)c2ccccc2)c(Cl)n1 [compound 29, 1-[(4,6-다이클로로-2-(메틸티오)피리미딘)-5-일]-페닐케톤] | 35 ± 12
C=CCNc1nc(SC)nc2c1cnn2C [화합물 12i, 1-메틸-4-알릴아미노-6-(메틸티오)피라졸로[3,4-d]피리미딘] | 101 ± 3
COc1ccccc1CNc1nc(SC)nc2c1cnn2C [화합물 12j, 1-메틸-4-(2-메톡시벤질)아미노-6-(메틸티오)피라졸로[3,4-d]피리미딘] | 40 ± 5
COc1cccc(CNc2nc(SC)nc3c2cnn3C)c1 [화합물 12k, 1-메틸-4-(3-메톡시벤질)아미노-6-(메틸티오)피라졸로[3,4-d]피리미딘] | 94 ± 5
CSc1nc(NCc2ccccc2C)c2cnn(C)c2n1 [화합물 12l, 1-메틸-4-(2-메틸벤질)아미노-6-(메틸티오)피라졸로[3,4-d]피리미딘] | 69
CSc1nc(NCc2ccc(Cl)cc2)c2cnn(C)c2n1 [화합물 12m, 1-메틸-4-(4-클로로벤질)아미노-6-(메틸티오)피라졸로[3,4-d]피리미딘] | 53 ± 6
CSc1nc(NC(C)c2ccccc2)c2cnn(C)c2n1 (stereo not shown) [화합물 12o, 1-메틸-6-(메틸티오)-N-(1-페닐에틸)-1H-피라졸로[3,4-d]피리미딘-4-아민] | 70 ± 5
C=CCn1ncc2c(NCc3ccccc3)nc(SC)nc21 [화합물 13a, 1-알릴-4-벤질아미노-6-(메틸티오)피라졸로[3,4-d]피리미딘] | 15 ± 25
C=CCNc1nc(SC)nc2c1cnn2CC=C [화합물 13b, 1-알릴-4-알릴아미노-6-(메틸티오)피라졸로[3,4-d]피리미딘] | 86 ± 9
C=CCn1ncc2c(NCCO)nc(SC)nc21 [화합물 13c, 1-알릴-4-(1-하이드록시에틸)아미노-6-(메틸티오)피라졸로[3,4-d]피리미딘] | 77 ± 7
C=CCn1ncc2c(NCc3ccc(F)cc3)nc(SC)nc21 [화합물 13d, 1-알릴-4-(4-플루오로벤질)아미노-6-(메틸티오)피라졸로[3,4-d]피리미딘] | 14 ± 39
C=CCn1ncc2c(NCc3ccccc3OC)nc(SC)nc21 [화합물 13e, N-(2-메톡시벤질)-1-알릴-6-(메틸티오)-1H-피라졸로[3,4-d]피리미딘-4-아민] | 22.4 ± 0.4
C=CCn1ncc2c(NCc3ccc(Cl)cc3)nc(SC)nc21 [화합물 13f, N-(4-클로로벤질)-1-알릴-6-(메틸티오)-1H-피라졸로[3,4-d]피리미딘-4-아민] | 11 ± 2.9
C=CCn1ncc2c(NCc3ccc(C)cc3)nc(SC)nc21 [화합물 13g, N-(4-메틸벤질)-1-알릴-6-(메틸티오)-1H-피라졸로[3,4-d]피리미딘-4-아민] | 12.2 ± 3.8
C=CCn1ncc2c(NCc3ccccc3C)nc(SC)nc21 [화합물 13h, N-(2-메틸벤질)-1-알릴-6-(메틸티오)-1H-피라졸로[3,4-d]피리미딘-4-아민] | 25 ± 0.3
C=CCn1ncc2c(NC(C)c3ccccc3)nc(SC)nc21 (stereo not shown) [화합물 13i, 1-알릴-6-(메틸티오)-N-(1-페닐에틸)-1H-피라졸로[3,4-d]피리미딘-4-아민] | 9.5 ± 3.8

Compound | activity at 20 µM [%]
C=CCn1ncc2c(NCc3cccc(OC)c3)nc(SC)nc21 [화합물 13j, N-(3-메톡시벤질)-1-알릴-6-(메틸티오)-1H-피라졸로[3,4-d]피리미딘-4-아민] | 87 ± 0.2
C=CCn1ncc2c(NC(C)(C)CO)nc(SC)nc21 [화합물 13k, 2-(1-알릴-6-(메틸티오)-1H-피라졸로[3,4-d]피리미딘-4-일아미노)-2-메틸프로판-1-올] | 15.9 ± 0.6
C=CCn1ncc2c(NCCCC)nc(SC)nc21 [화합물 13l, 1-알릴-N-뷰틸-6-(메틸티오)-1H-피라졸로[3,4-d]피리미딘-4-아민] | 43.3 ± 1.1
C=CCn1ncc2c(NCc3ccc(OC)cc3)nc(SC)nc21 [화합물 13m, N-(4-메톡시벤질)-1-알릴-6-(메틸티오)-1H-피라졸로[3,4-d]피리미딘-4-아민] | 8.6 ± 2.7
C=CCn1ncc2c(NCc3ccccn3)nc(SC)nc21 [화합물 13n, 1-알릴-6-(메틸티오)-N-((피리딘-2-일)메틸)-1H-피라졸로[3,4-d]피리미딘-4-아민] | 17.6 ± 0.7
C=CCn1ncc2c(NCc3ccccc3Cl)nc(SC)nc21 [화합물 13o, N-(2-클로로벤질)-1-알릴-6-(메틸티오)-1H-피라졸로[3,4-d]피리미딘-4-아민] | 17.5 ± 1.5
CSc1nc(NCc2ccccc2)c2cnn(CCNC(=O)OC(C)(C)C)c2n1 [화합물 14a, 1-(N-t-Boc-아미노에틸)-4-벤질아미노-6-(메틸티오)피라졸로[3,4-d]피리미딘] | 58 ± 6
COc1ccccc1CNc1nc(SC)nc2c1cnn2CCNC(=O)OC(C)(C)C [화합물 14c, 1-(N-t-Boc-아미노에틸)-4-(2-메톡시벤질)아미노-6-(메틸티오)피라졸로[3,4-d]피리미딘] | 54 ± 5
COc1cccc(CNc2nc(SC)nc3c2cnn3CCNC(=O)OC(C)(C)C)c1 [화합물 14d, 1-(N-t-Boc-아미노에틸)-4-(3-메톡시벤질)아미노-6-(메틸티오)피라졸로[3,4-d]피리미딘] | 49 ± 12
CSc1nc(NCc2ccc(Cl)cc2)c2cnn(CCNC(=O)OC(C)(C)C)c2n1 [화합물 14e, 2-(4-(4-클로로벤질아미노)-6-(메틸티오)-1H-피라졸로[3,4-d]피리미딘-1-일)에틸카바메이트] | 26.8 ± 0.1
CSc1nc(NC(C)(C)CO)c2cnn(CCNC(=O)OC(C)(C)C)c2n1 [화합물 14h, 2-(4-(1-하이드록시-2-메틸프로판-2-일아미노)-6-(메틸티오)-1H-피라졸로[3,4-d]피리미딘-1-일)에틸카바메이트] | 78.9 ± 1.6
CCCCNc1nc(SC)nc2c1cnn2CCNC(=O)OC(C)(C)C [화합물 14i, 2-(4-(뷰틸아미노)-6-(메틸티오)-1H-피라졸로[3,4-d]피리미딘-1-일)에틸카바메이트] | 54.2 ± 2.3
COc1ccc(CNc2nc(SC)nc3c2cnn3CCNC(=O)OC(C)(C)C)cc1 [화합물 14j, 2-(4-(4-메톡시벤질아미노)-6-(메틸티오)-1H-피라졸로[3,4-d]피리미딘-1-일)에틸카바메이트] | 25.8 ± 3
CSc1nc(NCc2ccccn2)c2cnn(CCNC(=O)OC(C)(C)C)c2n1 [화합물 14k, 2-(4-((피리딘-2-일)메틸아미노)-6-(메틸티오)-1H-피라졸로[3,4-d]피리미딘-1-일)에틸카바메이트] | 61 ± 0.8
CSc1nc(NCc2ccccc2Cl)c2cnn(CCNC(=O)OC(C)(C)C)c2n1 [화합물 14l, 2-(4-(2-클로로벤질아미노)-6-(메틸티오)-1H-피라졸로[3,4-d]피리미딘-1-일)에틸카바메이트] | 24.2 ± 1.7
CSc1nc(NCc2ccccc2)c2cnn(-c3ccccc3)c2n1 [화합물 15a, 1-페닐-4-벤질아미노-6-(메틸티오)피라졸로[3,4-d]피리미딘] | 53 ± 12
CSc1nc(NCCc2ccccc2)c2cnn(-c3ccccc3)c2n1 [화합물 15b, 1-페닐-4-(2-페닐에틸)아미노-6-(메틸티오)피라졸로[3,4-d]피리미딘] | 72 ± 8
COc1ccc(CNc2nc(SC)nc3c2cnn3-c2ccccc2)cc1 [화합물 15c, 1-페닐-4-(4-메톡시벤질)아미노-6-(메틸티오)피라졸로[3,4-d]피리미딘] | 61 ± 6
CSc1nc(NCCO)c2cnn(-c3ccccc3)c2n1 [화합물 15d, 1-페닐-4-(1-하이드록식에틸)아미노-6-(메틸티오)피라졸로[3,4-d]피리미딘] | 68 ± 7

Compound | activity at 20 µM [%]
CSc1nc(NCc2ccc(F)cc2)c2cnn(-c3ccccc3)c2n1 [화합물 15e, 1-페닐-4-(4-플루오로벤질)아미노-6-(메틸티오)피라졸로[3,4-d]피리미딘] | 46 ± 10
C=CCNc1nc(SC)nc2c1cnn2-c1ccccc1 [화합물 15f, 1-페닐-4-알릴아미노-6-(메틸티오)피라졸로[3,4-d]피리미딘] | 60 ± 17
CSc1nc(NCCN2CCCCC2)c2cnn(-c3ccccc3)c2n1 [화합물 15g, 1-페닐-4-[2-(피페리딘-1-일)]에틸아미노-6-(메틸티오)피라졸로[3,4-d]피리미딘] | 64 ± 7
CSc1nc(N[C@H](C)c2ccccc2)c2cnn(-c3ccccc3)c2n1 [화합물 15h, (R)-1-페닐-4-(1-페닐에틸)아미노-6-(메틸티오)피라졸로[3,4-d]피리미딘] | 29 ± 4.6
CSc1nc(N(CCO)CCO)c2cnn(-c3ccccc3)c2n1 [화합물 15i, 1-페닐-4-비스(1-하이드록시에틸)아미노-6-(메틸티오)피라졸로[3,4-d]피리미딘] | 90 ± 3
CSc1nc(NCc2ccccn2)c2cnn(-c3ccccc3)c2n1 [화합물 15j, 1-페닐-4-[(피리딘-2-일)메틸]아미노-6-(메틸티오)피라졸로[3,4-d]피리미딘] | 30 ± 14
CSc1nc(NC(C)(C)CO)c2cnn(-c3ccccc3)c2n1 [화합물 15k, 1-페닐-4-[(1-하이드록시-2,2-다이메틸)에틸]아미노-6-(메틸티오)피라졸로[3,4-d]피리미딘] | 70 ± 3
COc1cccc(CNc2nc(SC)nc3c2cnn3-c2ccccc2)c1 [화합물 15l, 1-페닐-4-(3-메톡시벤질)아미노-6-(메틸티오)피라졸로[3,4-d]피리미딘] | 50 ± 9
CSc1nc(N2CCCCC2)c2cnn(-c3ccccc3)c2n1 [화합물 15m, 1-페닐-4-피페리디노-6-(메틸티오)피라졸로[3,4-d]피리미딘] | 92 ± 4
CSc1nc(NCc2ccc(Cl)cc2)c2cnn(-c3ccccc3)c2n1 [화합물 15n, 1-페닐-4-(4-클로로벤질)아미노-6-(메틸티오)피라졸로[3,4-d]피리미딘] | 63 ± 6
CSc1nc(NCc2ccccc2C)c2cnn(-c3ccccc3)c2n1 [화합물 15o, 1-페닐-4-(2-메틸벤질)아미노-6-(메틸티오)피라졸로[3,4-d]피리미딘] | 57 ± 1
CSc1nc(NCc2ccc(C)cc2)c2cnn(-c3ccccc3)c2n1 [화합물 15p, 1-페닐-4-(4-메틸벤질)아미노-6-(메틸티오)피라졸로[3,4-d]피리미딘] | 71 ± 5
CSc1nc(NC2CCCCC2)c2cnn(-c3ccccc3)c2n1 [화합물 15q, 1-페닐-4-사이클로헥실아미노-6-(메틸티오)피라졸로[3,4-d]피리미딘] | 54 ± 1
CSc1nc(N[C@H](C)C2CCCCC2)c2cnn(-c3ccccc3)c2n1 [화합물 15r, (R)-1-페닐-4-(1-사이클로헥실에틸)아미노-6-(메틸티오)피라졸로[3,4-d]피리미딘] | 41 ± 1
COc1nc(SC)nc2c1cnn2-c1ccccc1 [화합물 15s, 1-페닐-4-메톡시-6-(메틸티오)피라졸로[3,4-d]피리미딘] | 93 ± 2
CCCCNc1nc(SC)nc2c1cnn2-c1ccccc1 [화합물 15t, 1-페닐-4-n-뷰틸아미노-6-(메틸티오)피라졸로[3,4-d]피리미딘] | 48 ± 8
CSc1nc(N2CCN(C)CC2)c2cnn(-c3ccccc3)c2n1 [화합물 15u, 1-페닐-4-(4-메틸)피페라지노-6-(메틸티오)피라졸로[3,4-d]피리미딘] | 64
COc1ccccc1CNc1nc(SC)nc2c1cnn2-c1ccccc1 [화합물 15v, 1-페닐-4-(2-메톡시벤질)아미노-6-(메틸티오)피라졸로[3,4-d]피리미딘] | 41 ± 2
CCN(CC)c1nc(SC)nc2c1cnn2-c1ccccc1 [화합물 15w, 1-페닐-4-다이에틸아미노-6-(메틸티오)피라졸로[3,4-d]피리미딘] | 79 ± 3

same assay, conditions: Mus musculus, BV-2, 24 h, 30 μM, LPS 0.2 ㎍/mL, 24 h co-treatment, nitrite by Griess at 540 nm

Compound | activity at 30 µM [%]
CSc1nc(Cl)c2cn[nH]c2n1 [compound 4, 4-클로로-6-(메틸티오)피라졸로[3,4-d]피리미딘] | 19 ± 4.1

Reference: patent KR20130112248A, “피라졸로피리미딘 유도체 화합물, 이를 포함하는 산화질소 생성 억제용 조성물 및 뇌신경 질환 예방 및 치료용 약학적 조성물” (한국과학기술연구원, priority 2012, dated 2013)
